As a reminder, the solubility is the concentration that dissolves in the medium under given conditions. Read a high solubility as a readily soluble substance.

Data on one compound can be found in patent US20060034911A1, “New oral immediated release dosage form” (priority 2002, published 2006).

A short description of series [1]: Plasma elimination half-life in man. It is filed as in vivo. Particulars: human, read-out: plasma elimination half-life, t1/2 (converted).

Take `Br.Cc1ccc(N2CCN(C)CC2)c2c1CC[C@@H](NC(=O)c1ccc(N3CCOCC3)cc1)C2` [(R)-N-[5-methyl-8-(4-methylpiperazin-1-yl)-1,2,3,4-tetrahydro-2-naphthyl]-4-morpholinobenzamide monohydrobromide]: the half-life in series [1] was 35 h. Also, the solubility in “physchem” (0.1 M HCl, simulated gastric fluid) is 11 mg/mL; in the series “physchem” (ethanol/water 1:1, aqueous with cosolvent or surfactant or cyclodextrin), 19 mg/mL; in “physchem” (water), 6.4 mg/mL.
